# Measured values from US20240287138A1, “CYCLIC PEPTIDES FOR INHIBITING TNF RECEPTOR 1 ACTIVITY” (Merck Sharp & Dohme LLC, priority 2023, published 2024).
# Numbered stars: 1 amine (or outer) side, 2 acyl side, 3 side chain; on linkers, the order of the positions; unused ones are H or OH. Bridge positions count the residues as written; N and C are the ends. Square brackets hold non-standard residues; d marks the D form. Peptide text beside a SMILES is read from it. * marks the point of attachment. Trp(βS-Me,7-OMe) = COc1cccc2c([C@H](C)[C@H](N)C(=O)O)c[nH]c12; X24 = O=C(O)c1ccc([C@@H](O)[C@H](N[*:1])C(=O)[*:2])cc1; X28 = NC(=O)c1ccc([C@H](O)[C@H](N[*:1])C(=O)[*:2])cc1; Trp(7-CN) = N#Cc1cccc2c(C[C@H](N)C(=O)O)c[nH]c12; Trp(7-Cl) = N[C@@H](Cc1c[nH]c2c(Cl)cccc12)C(=O)O; X29 = NC(=O)Cc1cccc(C[C@H](N[*:1])C(=O)[*:2])c1; Phe(4-CONH2) = NC(=O)c1ccc(C[C@H](N)C(=O)O)cc1; Phe(4-COOH) = N[C@@H](Cc1ccc(C(=O)O)cc1)C(=O)O; Trp(7-aza) = N[C@@H](Cc1c[nH]c2ncccc12)C(=O)O; X3 = C[C@H](c1ccncc1)[C@H](N[*:1])C(=O)[*:2]; dPro(4S-NH2) = N[C@@H]1CN[C@@H](C(=O)O)C1; Pip(5R-OH) = O=C(O)[C@@H]1CC[C@@H](O)CN1; X1 = O=C([C@@H]1CC[C@H](N[*:1])C1)[*:2]; X19 = O=C([C@H](Cc1ccncn1)N[*:1])[*:2]; Gly(N(CH2)3COOH) = O=C(O)CCCNCC(=O)O; Pip(4-aza) = O=C(O)[C@@H]1CNCCN1; 4Pal = N[C@@H](Cc1ccncc1)C(=O)O; NMeE = CN[C@@H](CCC(=O)O)C(=O)O; dHyp = O=C(O)[C@H]1C[C@H](O)CN1; Pip = O=C(O)[C@@H]1CCCCN1; αMeS = C[C@](N)(CO)C(=O)O; Nle = CCCC[C@H](N)C(=O)O; Ethyl(2-NH2) = NCC*; Sar = CNCC(=O)O; X22 = C1CC1C*
# How the values were obtained:
# [1] = biological target: T1, human soluble TNFR1 (sTNFR1) (Homo sapiens, UniProt P19438); assay: Human sTNFR1-peptide displacement assay (LanthaScreen Eu TR-FRET binding assay)
# T1 construct: made in house; host or cells: Sf21 (baculovirus)
# T1 sequence (P19438 with tags, fused parts or gaps): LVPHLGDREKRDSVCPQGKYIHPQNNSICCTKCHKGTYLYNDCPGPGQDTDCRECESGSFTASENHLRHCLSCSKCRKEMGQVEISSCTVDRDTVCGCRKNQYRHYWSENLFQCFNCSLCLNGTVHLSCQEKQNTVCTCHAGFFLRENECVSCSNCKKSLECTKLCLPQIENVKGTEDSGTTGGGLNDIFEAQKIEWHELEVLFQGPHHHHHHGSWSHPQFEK
# How it was run: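 Readout is the 665/615 nm TR-FRET ratio (Eu anti-His donor, streptavidin-Alexa647 acceptor), normalized to DMSO and saturating displacer, fit by Morrison-based five-parameter logistic for Kd^app. His-tagged sTNFR1 (1-211) prebound to 100 nM biotinylated peptide SEQ ID NO.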
# [2] = biological target: T2, human TNFR1 extracellular domain (ECD) protein (Homo sapiens, UniProt P19438); assay: SPR binding affinity to captured human TNFR1 ECD
# T2 construct: HRV 3C protease cleavage site (C); 6His (C, cleaved yes); made in house; host or cells: Sf21 insect cells (baculovirus), secreted
# T2 sequence (P19438 30-211): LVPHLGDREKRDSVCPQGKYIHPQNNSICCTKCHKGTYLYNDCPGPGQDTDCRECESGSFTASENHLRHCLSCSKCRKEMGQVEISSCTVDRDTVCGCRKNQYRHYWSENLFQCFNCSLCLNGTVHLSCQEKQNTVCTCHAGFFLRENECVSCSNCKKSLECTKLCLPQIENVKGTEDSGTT
# How it was run: (§1)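 Insect-cell human receptor ECDs, enzymatically biotinylated, immobilized via streptavidin capture chip. Peptide binding and dissociation measured in RU in pH 7.4 HEPES buffer containing 2% DMSO; chip regenerated per analyte. Rate constants give affinity.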
# human TNFR2 ECD protein = biological target: T3, human TNFR2 ECD protein (Homo sapiens, UniProt P20333); assay: SPR off-target binding (selectivity) to human TNFR2 ECD
# T3 construct: HRV 3C protease cleavage site (C); 6His (C, cleaved yes); made in house; host or cells: Sf21 insect cells (baculovirus), secreted
# T3 sequence (P20333 23-257): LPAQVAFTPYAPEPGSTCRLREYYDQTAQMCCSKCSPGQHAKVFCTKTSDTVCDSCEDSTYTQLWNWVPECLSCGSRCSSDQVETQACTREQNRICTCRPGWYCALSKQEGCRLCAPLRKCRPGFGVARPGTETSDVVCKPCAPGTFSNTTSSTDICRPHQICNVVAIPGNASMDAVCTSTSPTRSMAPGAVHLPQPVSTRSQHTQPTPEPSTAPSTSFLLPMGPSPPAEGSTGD
# How it was run: as §1
Compound,IC50 [1] [nM],Kd [1] [nM],Kd [2] [nM],Kd (human TNFR2 ECD protein) [nM]
"CCCC[C@@H]1NC(=O)CSC[C@@H](C(N)=O)NC(=O)[C@H]([C@@H](C)c2c[nH]c3c(OC)cccc23)NC(=O)CN(C)C(=O)[C@H](Cc2ccc(O)cc2)NC(=O)[C@H](Cc2ccc(C(=O)O)cc2)NC(=O)[C@](C)(CO)NC(=O)[C@H](Cc2c[nH]c3c(Cl)cccc23)NC(=O)[C@H](Cc2ccncc2)NC(=O)[C@H](CC(N)=O)NC(=O)[C@H](CCC(=O)O)N(C)C(=O)[C@H](Cc2c[nH]c3ncccc23)NC(=O)[C@H](CO)NC(=O)[C@H]([C@H](C)c2ccncc2)NC1=O [SEQ ID NO. 143] ({CH2CO}-[Nle][X3]S[Trp(7-aza)][NMeE]N[4Pal][Trp(7-Cl)][αMeS][Phe(4-COOH)]Y[Sar][Trp(βS-Me,7-OMe)]C-NH2; thioether N-14)",0.4,0.21,0.05,> 1000
"CCCC[C@@H]1NC(=O)[C@@H]2CC[C@@H](C2)NC(=O)[C@H]([C@@H](C)c2c[nH]c3c(OC)cccc23)NC(=O)CN(C)C(=O)[C@H](Cc2ccc(O)cc2)NC(=O)[C@H](Cc2ccc(C(N)=O)cc2)NC(=O)[C@](C)(CO)NC(=O)[C@H](Cc2c[nH]c3c(Cl)cccc23)NC(=O)[C@H](Cc2ccncc2)NC(=O)[C@H](CC(N)=O)NC(=O)[C@H]2C[C@H](N)CN2C(=O)[C@H](Cc2c[nH]c3ccccc23)NC(=O)[C@@H]2CC[C@@H](O)CN2C(=O)[C@H](Cc2ccncc2)NC1=O [SEQ ID NO. 144] (cyclo([4Pal][Trp(7-Cl)][αMeS][Phe(4-CONH2)]Y[Sar][Trp(βS-Me,7-OMe)][X1][Nle][4Pal][Pip(5R-OH)]W[dPro(4S-NH2)]N))",,0.07,0.1,> 1000
"COc1cccc2c([C@H](C)[C@@H]3NC(=O)CN(C)C(=O)[C@H](Cc4ccc(C(=O)O)cc4)NC(=O)[C@H](Cc4ccc(C(N)=O)cc4)NC(=O)[C@](C)(CO)NC(=O)[C@H](Cc4c[nH]c5c(Cl)cccc45)NC(=O)[C@H](Cc4ccc(C(=O)O)cc4)NC(=O)[C@H](CC(N)=O)NC(=O)[C@H]4C[C@H](O)CN4C(=O)[C@H](Cc4c[nH]c5ncccc45)NC(=O)[C@@H]4CC[C@@H](O)CN4C(=O)[C@H](Cc4ccncc4)NC(=O)[C@H](COCCN)NC(=O)[C@@H]4CC[C@@H](C4)NC3=O)c[nH]c12 [SEQ ID NO. 148] (cyclo([4Pal][Pip(5R-OH)][Trp(7-aza)][dHyp]N[Phe(4-COOH)][Trp(7-Cl)][αMeS][Phe(4-CONH2)][Phe(4-COOH)][Sar][Trp(βS-Me,7-OMe)][X1]S(Ethyl(2-NH2))))",,0.9,1.1,> 1000
"COc1cccc2c([C@H](C)[C@@H]3NC(=O)CN(C)C(=O)[C@H](Cc4ccc(C(=O)O)cc4)NC(=O)[C@H](Cc4ccc(C(N)=O)cc4)NC(=O)[C@](C)(CO)NC(=O)[C@H](Cc4c[nH]c5c(C#N)cccc45)NC(=O)[C@H](Cc4ccc(C(=O)O)cc4)NC(=O)[C@H](CC(N)=O)NC(=O)[C@H]4C[C@H](O)CN4C(=O)[C@H](Cc4c[nH]c5ncccc45)NC(=O)[C@@H]4CC[C@@H](O)CN4C(=O)[C@H](Cc4ccncc4)NC(=O)[C@H](COCC4CC4)NC(=O)[C@@H]4CC[C@@H](C4)NC3=O)c[nH]c12 [SEQ ID NO. 149] (cyclo([4Pal][Pip(5R-OH)][Trp(7-aza)][dHyp]N[Phe(4-COOH)][Trp(7-CN)][αMeS][Phe(4-CONH2)][Phe(4-COOH)][Sar][Trp(βS-Me,7-OMe)][X1]S(X22)))",,0.21,0.18,> 1000
"CCCC[C@@H]1NC(=O)[C@@H]2CC[C@@H](C2)NC(=O)[C@H]([C@@H](C)c2c[nH]c3c(OC)cccc23)NC(=O)CN(C)C(=O)[C@H](Cc2cccc(CC(N)=O)c2)NC(=O)[C@H](Cc2ccc(C(=O)O)cc2)NC(=O)[C@](C)(CO)NC(=O)[C@H](Cc2c[nH]c3c(Cl)cccc23)NC(=O)[C@H](Cc2ccncc2)NC(=O)[C@H](CC(N)=O)NC(=O)[C@H](CCC(=O)O)N(C)C(=O)[C@H](Cc2c[nH]c3ccccc23)NC(=O)[C@@H]2CNCCN2C(=O)[C@H](Cc2ccncc2)NC1=O [SEQ ID NO. 153] (cyclo([4Pal][Trp(7-Cl)][αMeS][Phe(4-COOH)][X29][Sar][Trp(βS-Me,7-OMe)][X1][Nle][4Pal][Pip(4-aza)]W[NMeE]N))",,0.23,0.16,> 1000
"CCCC[C@@H]1NC(=O)[C@@H]2CC[C@@H](C2)NC(=O)[C@H]([C@@H](C)c2c[nH]c3c(OC)cccc23)NC(=O)CN(C)C(=O)[C@H]([C@H](O)c2ccc(C(=O)O)cc2)NC(=O)[C@H]([C@@H](O)c2ccc(C(N)=O)cc2)NC(=O)[C@](C)(CO)NC(=O)[C@H](Cc2c[nH]c3c(C#N)cccc23)NC(=O)[C@H](Cc2ccncc2)NC(=O)[C@H](CC(N)=O)NC(=O)[C@H]2C[C@H](O)CN2C(=O)[C@H](Cc2c[nH]c3ccccc23)NC(=O)[C@@H]2CC[C@@H](O)CN2C(=O)[C@H](Cc2ccncc2)NC1=O [SEQ ID NO. 155] (cyclo([4Pal][Trp(7-CN)][αMeS][X28][X24][Sar][Trp(βS-Me,7-OMe)][X1][Nle][4Pal][Pip(5R-OH)]W[dHyp]N))",,0.1,0.02,> 1000
"CCCC[C@@H]1NC(=O)CSC[C@@H](C(N)=O)NC(=O)[C@H]([C@@H](C)c2c[nH]c3c(OC)cccc23)NC(=O)CN(C)C(=O)[C@H](Cc2ccc(O)cc2)NC(=O)[C@H](Cc2ccc(C(=O)O)cc2)NC(=O)[C@](C)(CO)NC(=O)[C@H](Cc2c[nH]c3c(Cl)cccc23)NC(=O)[C@H](Cc2ccncc2)NC(=O)[C@H](CC(N)=O)NC(=O)CN(CCCC(=O)O)C(=O)[C@H](Cc2c[nH]c3ncccc23)NC(=O)[C@@H]2CCCCN2C(=O)[C@H](Cc2ccncc2)NC1=O [SEQ ID NO. 157] ({CH2CO}-[Nle][4Pal][Pip][Trp(7-aza)][Gly(N(CH2)3COOH)]N[4Pal][Trp(7-Cl)][αMeS][Phe(4-COOH)]Y[Sar][Trp(βS-Me,7-OMe)]C-NH2; thioether N-14)",0.72,0.64,0.5,> 1000
"CCCC[C@@H]1NC(=O)[C@@H]2CC[C@@H](C2)NC(=O)[C@H]([C@@H](C)c2c[nH]c3c(OC)cccc23)NC(=O)CN(C)C(=O)[C@H](Cc2ccc(C(=O)O)cc2)NC(=O)[C@H](Cc2ccc(C(N)=O)cc2)NC(=O)[C@](C)(CO)NC(=O)[C@H](Cc2c[nH]c3c(Cl)cccc23)NC(=O)[C@H](Cc2ccncn2)NC(=O)[C@H](CC(N)=O)NC(=O)[C@H]2C[C@H](O)CN2C(=O)[C@H](Cc2c[nH]c3ncccc23)NC(=O)[C@@H]2CC[C@@H](O)CN2C(=O)[C@H](Cc2ccncc2)NC1=O [SEQ ID NO. 159] (cyclo([4Pal][Pip(5R-OH)][Trp(7-aza)][dHyp]N[X19][Trp(7-Cl)][αMeS][Phe(4-CONH2)][Phe(4-COOH)][Sar][Trp(βS-Me,7-OMe)][X1][Nle]))",,0.12,0.05,> 1000
"CCCC[C@@H]1NC(=O)[C@@H]2CC[C@@H](C2)NC(=O)[C@H]([C@@H](C)c2c[nH]c3c(OC)cccc23)NC(=O)CN(C)C(=O)[C@H](Cc2ccc(O)cc2)NC(=O)[C@H](Cc2ccc(C(=O)O)cc2)NC(=O)[C@](C)(CO)NC(=O)[C@H](Cc2c[nH]c3c(Cl)cccc23)NC(=O)[C@H](Cc2ccncc2)NC(=O)[C@H](CC(N)=O)NC(=O)[C@H]2C[C@H](N)CN2C(=O)[C@H](Cc2c[nH]c3ccccc23)NC(=O)[C@@H]2CNCCN2C(=O)[C@H](Cc2ccncc2)NC1=O [SEQ ID NO. 161] (cyclo([4Pal][Trp(7-Cl)][αMeS][Phe(4-COOH)]Y[Sar][Trp(βS-Me,7-OMe)][X1][Nle][4Pal][Pip(4-aza)]W[dPro(4S-NH2)]N))",,0.09,0.02,> 1000
"CCCC[C@@H]1NC(=O)[C@@H]2CC[C@@H](C2)NC(=O)[C@H]([C@@H](C)c2c[nH]c3c(OC)cccc23)NC(=O)CN(C)C(=O)[C@H](Cc2ccc(O)cc2)NC(=O)[C@H](Cc2ccc(C(N)=O)cc2)NC(=O)[C@](C)(CO)NC(=O)[C@H](Cc2c[nH]c3c(Cl)cccc23)NC(=O)[C@H](Cc2ccncc2)NC(=O)[C@H](CC(N)=O)NC(=O)[C@H](CCC(=O)O)N(C)C(=O)[C@H](Cc2c[nH]c3ccccc23)NC(=O)[C@@H]2CC[C@@H](O)CN2C(=O)[C@H](Cc2ccncc2)NC1=O [SEQ ID NO. 163] (cyclo([4Pal][Trp(7-Cl)][αMeS][Phe(4-CONH2)]Y[Sar][Trp(βS-Me,7-OMe)][X1][Nle][4Pal][Pip(5R-OH)]W[NMeE]N))",,0.05,0.05,> 1000
